Test results from patent US20250241894A1, “TREATMENT OF MENTAL DISORDERS” (GH RESEARCH IRELAND LIMITED, priority 2022, published 2025).

Experiments:
[1] = test system: Escherichia coli (WP2 uvrA pKM101); assay: Bacterial mutation test with and without S-9; type: cell-based; conditions: up to 5000 μg/plate, absence and presence of S-9
Procedure: (§1) These conditions included treatments at concentrations up to 5000 μg/plate (the maximum recommended concentration according to current regulatory guidelines), in the absence and in the presence of a rat liver metabolic activation system (S-9).

[2] = test system: Salmonella typhimurium (TA98, TA100, TA1535 and TA1537); assay: Bacterial mutation test with and without S-9; type: cell-based; conditions: up to 5000 μg/plate, absence and presence of S-9
Procedure: as §1

[3] = test system: patients with postpartum depression (PPD); assay: Open-label clinical trial of inhaled 5-MeO-DMT (single-day IDR) in postpartum depression; one patient so far, received 6 mg then 12 mg
Procedure: The single-arm, open-label clinical trial will involve 15 adult female patients with clinically diagnosed postpartum depression (PPD).
The second dose (12 mg) will only be administered if: • a. […] The 6 mg dose was safe and well-tolerated according to the investigator, • c. Any psychoactive effects (PsE) of the prior dose have subsided, and • d. Pre-dose vital parameters and forced expiratory volume in one second (FEV1) are in normal range, or if outside of the normal range, are not clinically significant according to the investigator. • 3. Similarly, a third dose (18 mg) will only be administered if: • a. […] The 12 mg dose was safe and well-tolerated according to the investigator, and • c. Any PsE of the prior dose have subsided, and • d. Pre-dose vital parameters and forced expiratory volume in one second (FEV1) are in normal range, or if outside of the normal range, are not clinically significant according to the investigator.
The patients will be assessed for a peak psychedelic experience (based on a patient-scored visual analogue scale, the PE scale), sedation, and other endpoints after dosing.
Follow-up visits are planned for Day 1, and Day 7 after the dosing day.
The following criteria must be met by all patients considered for clinical trial participation: • 1. Is female and in the age range between 18 and 45 years (inclusive) at screening. • 2. Has a body mass index (BMI) in the range of 18.5 and 35 kg/m^2 (inclusive) at screening. • 3. Meets the trial criteria for PPD as assessed by a trial psychiatrist or registered psychologist: • a. Diagnosis of Major Depressive Disorder without psychotic features, confirmed by the Mini-International Neuropsychiatric Interview (MINI), with peri-partum onset that began no earlier than gestation and no later than the first 4 weeks postpartum. • b. Has a Montgomery-Åsberg Depression Rating Scale (MADRS) total score of equal to or greater than 28 at screening and pre-dose on Day 0. • 6. […] Patients must have a negative pregnancy test at screening and on the pre-test day (Day-1). • 5. Is willing to delay start of other antidepressant or anxiety medication until after the end of the trial at Day 7 and agrees to keep any psychotherapy unchanged during the trial.

With `COc1ccc2[nH]cc(CCN(C)C)c2c1` [5-MeO-DMT] the Mutation induction [1] was “did not induce mutation”, the Mutation induction [2] was “did not induce mutation” and the “ECG (3 hours), safety laboratory analyses (7 days), CADSS (3 hours, 1 day, 7 days)” value ([3]; n=1) was “unremarkable”. For the same compound, the “MADRS response (>=50% improvement) and remission (total <=10) criteria” value ([3]; n=1) was “fulfilled standard criteria for MADRS response”, the “Onset of clinical response” value ([3]; n=1) was at most 2 h and the “Time to clinical remission” value ([3]; n=1) was at most 2 h. For the same compound, the “Tolerability of inhalation procedure” value ([3]; n=1) was “well tolerated with no inhalation-related adverse events”, the “Total MADRS improvement” value ([3]; n=1, 2 hr) was 24 and the “Total MADRS score” value ([3]; n=1, 2 hr, baseline 29) was 5. The “Reported adverse events (cramping left abdominal pain, headache)” value ([3]; n=1, Day 0) was “mild, short-lasting and resolved spontaneously”, the “BPRS Tension improvement” value ([3]; n=1, Day 1) was 5 and the “Total MADRS improvement” value ([3]; n=1, Day 1) was 29. The “Total MADRS score” value ([3]; n=1, Day 1, baseline 29) was 0, the “Total MADRS improvement” value ([3]; n=1, Day 7) was 28 and the “BIMF functional domain Adjustment score” value ([3]; n=1, Day 7, Day 0 5, maximum 12) was 6. The “BIMF functional domain Self-Care score” value ([3]; n=1, Day 7, Day 0 9, maximum 18) was 13, the “BIMF functional domain Infant Care score” value ([3]; n=1, Day 7, Day 0 12, maximum 12) was 12 and the “BIMF functional domain Mother-Child Interaction score” value ([3]; n=1, Day 7, Day 0 15, maximum 18) was 17. The “BIMF functional domain Social Support score” value ([3]; n=1, Day 7, Day 0 17, maximum 18) was 18, the “BIMF functional domain Management score” value ([3]; n=1, Day 7, Day 0 28, maximum 36) was 33 and the “BIMF functional domain Psychological Well-being score” value ([3]; n=1, Day 7, Day 0 44, maximum 60) was 53. The “BIMF item 19 (As time goes on, I am getting better at taking care of my baby) score” value ([3]; n=1, Day 7, Day 0 score 0) was 1, the “BIMF item 16 (I worry about how other people judge me (as a mother)) score” value ([3]; n=1, Day 7, Day 0 score 3) was 5 and the “BIMF item 13 (I am taking good care of my physical needs) score” value ([3]; n=1, Day 7, Day 0 score 4) was 5. For the same compound, the “BIMF item 5 (I am able to relax and enjoy time with my baby) score” value ([3]; n=1, Day 7, Day 0 score 5) was 6, the “BIMF item 9 (I am getting enough encouragement from other people) score” value ([3]; n=1, Day 7, Day 0 score 5) was 6 and the “BIMF item 10 (I trust my own feelings (instincts) when it comes to taking care of my baby) score” value ([3]; n=1, Day 7, Day 0 score 5) was 6. The “BIMF item 11 (I take a little time each week to do something for myself) score” value ([3]; n=1, Day 7, Day 0 score 5) was 6, the “BIMF item 17 (I am able to take care of my baby and my other responsibilities) score” value ([3]; n=1, Day 7, Day 0 score 5) was 5 and the “BIMF item 3 (I am comfortable with the way I've chosen to feed my baby) score” value ([3]; n=1, Day 7, Day 0 score 6) was 6. The “BIMF item 6 (There are people in my life that I can trust to care for my baby when I need a break) score” value ([3]; n=1, Day 7, Day 0 score 6) was 6, the “BIMF item 8 (I am getting enough adult interaction) score” value ([3]; n=1, Day 7, Day 0 score 6) was 6 and the “BIMF item 12 (I am taking good care of my baby's physical needs) score” value ([3]; n=1, Day 7, Day 0 score 6) was 6. The “BIMF item 14 (I make good decisions about my baby's health and well being) score” value ([3]; n=1, Day 7, Day 0 score 6) was 6, the “BIMF item 20 (I am satisfied with the job I am doing as a new mother) score” value ([3]; n=1, Day 7, Day 0 score 6) was 5 and the “Total MADRS score” value ([3]; n=1, Day 7, baseline 29) was 1. The “BIMF total score improvement” value ([3]; n=1, Day 7, from 92) was 14%, the “BIMF TOTAL Δ” value ([3]; n=1, Day 7 vs Day 0) was 13 and the “BIMF functional domain Adjustment % Improvement” value ([3]; n=1, Day 7 vs Day 0) was 20.00%. For the same compound, the “BIMF functional domain Adjustment Δ” value ([3]; n=1, Day 7 vs Day 0) was 1, the “BIMF functional domain Infant Care % Improvement” value ([3]; n=1, Day 7 vs Day 0) was 0.00% and the “BIMF functional domain Infant Care Δ” value ([3]; n=1, Day 7 vs Day 0) was 0. The “BIMF functional domain Management % Improvement” value ([3]; n=1, Day 7 vs Day 0) was 18%, the “BIMF functional domain Management Δ” value ([3]; n=1, Day 7 vs Day 0) was 5 and the “BIMF functional domain Mother-Child Interaction Δ” value ([3]; n=1, Day 7 vs Day 0) was 2. The “BIMF functional domain Psychological Well-being Δ” value ([3]; n=1, Day 7 vs Day 0) was 9, the “BIMF functional domain Self-Care % Improvement” value ([3]; n=1, Day 7 vs Day 0) was 44% and the “BIMF functional domain Self-Care Δ” value ([3]; n=1, Day 7 vs Day 0) was 4. For the same compound, the “BIMF functional domain Social Support Δ” value ([3]; n=1, Day 7 vs Day 0) was 1, the “BIMF item 1 (I am a good mother) Δ” value ([3]; n=1, Day 7 vs Day 0) was 0 and the “BIMF item 2 (I feel rested) Δ” value ([3]; n=1, Day 7 vs Day 0) was 2. The “BIMF item 3 (I am comfortable with the way I've chosen to feed my baby) Δ” value ([3]; n=1, Day 7 vs Day 0) was 0, the “BIMF item 4 (My baby and I understand each other) Δ” value ([3]; n=1, Day 7 vs Day 0) was 0 and the “BIMF item 5 (I am able to relax and enjoy time with my baby) Δ” value ([3]; n=1, Day 7 vs Day 0) was 1. The “BIMF item 6 (There are people in my life that I can trust to care for my baby when I need a break) Δ” value ([3]; n=1, Day 7 vs Day 0) was 0, the “BIMF item 8 (I am getting enough adult interaction) Δ” value ([3]; n=1, Day 7 vs Day 0) was 0 and the “BIMF item 9 (I am getting enough encouragement from other people) Δ” value ([3]; n=1, Day 7 vs Day 0) was 1. The “BIMF item 10 (I trust my own feelings (instincts) when it comes to taking care of my baby) Δ” value ([3]; n=1, Day 7 vs Day 0) was 1, the “BIMF item 11 (I take a little time each week to do something for myself) Δ” value ([3]; n=1, Day 7 vs Day 0) was 1 and the “BIMF item 12 (I am taking good care of my baby's physical needs) Δ” value ([3]; n=1, Day 7 vs Day 0) was 0. The “BIMF item 13 (I am taking good care of my physical needs) Δ” value ([3]; n=1, Day 7 vs Day 0) was 1, the “BIMF item 14 (I make good decisions about my baby's health and well being) Δ” value ([3]; n=1, Day 7 vs Day 0) was 0 and the “BIMF item 15 (My baby and I are getting into a routine) Δ” value ([3]; n=1, Day 7 vs Day 0) was 1. For the same compound, the “BIMF item 16 (I worry about how other people judge me (as a mother)) Δ” value ([3]; n=1, Day 7 vs Day 0) was 2, the “BIMF item 17 (I am able to take care of my baby and my other responsibilities) Δ” value ([3]; n=1, Day 7 vs Day 0) was 0 and the “BIMF item 18 (Anxiety or worry often interferes with my mothering ability) Δ” value ([3]; n=1, Day 7 vs Day 0) was 3. The “BIMF item 19 (As time goes on, I am getting better at taking care of my baby) Δ” value ([3]; n=1, Day 7 vs Day 0) was 1, the “BIMF item 20 (I am satisfied with the job I am doing as a new mother) Δ” value ([3]; n=1, Day 7 vs Day 0) was −1 and the “BPRS Tension improvement” value ([3]; n=1, Discharge) was 5. For the same compound, the Vital parameters ([3]; n=1, shortly after administration) was “temporary, clinically non-relevant increase in heart rate and blood pressure”.
